From BindingDB's records for doi:10.1021/acs.jmedchem.3c00926 (Yale University, 2023)

Key:
[1] = molecular target: T1, Signal transducer and activator of transcription 3 (Homo sapiens, UniProt P40763); assay: Inhibition of IL-23 induced STAT3 phosphorylation in human KIT225 cells by AlphaLISA assay
[2] = molecular target: T1, Signal transducer and activator of transcription 3; assay: Inhibition of IL-23 induced STAT3 phosphorylation in human Jurkat cells incubated for 30 mins by microplate reader analysis

T1 sequence (P40763 whole entry): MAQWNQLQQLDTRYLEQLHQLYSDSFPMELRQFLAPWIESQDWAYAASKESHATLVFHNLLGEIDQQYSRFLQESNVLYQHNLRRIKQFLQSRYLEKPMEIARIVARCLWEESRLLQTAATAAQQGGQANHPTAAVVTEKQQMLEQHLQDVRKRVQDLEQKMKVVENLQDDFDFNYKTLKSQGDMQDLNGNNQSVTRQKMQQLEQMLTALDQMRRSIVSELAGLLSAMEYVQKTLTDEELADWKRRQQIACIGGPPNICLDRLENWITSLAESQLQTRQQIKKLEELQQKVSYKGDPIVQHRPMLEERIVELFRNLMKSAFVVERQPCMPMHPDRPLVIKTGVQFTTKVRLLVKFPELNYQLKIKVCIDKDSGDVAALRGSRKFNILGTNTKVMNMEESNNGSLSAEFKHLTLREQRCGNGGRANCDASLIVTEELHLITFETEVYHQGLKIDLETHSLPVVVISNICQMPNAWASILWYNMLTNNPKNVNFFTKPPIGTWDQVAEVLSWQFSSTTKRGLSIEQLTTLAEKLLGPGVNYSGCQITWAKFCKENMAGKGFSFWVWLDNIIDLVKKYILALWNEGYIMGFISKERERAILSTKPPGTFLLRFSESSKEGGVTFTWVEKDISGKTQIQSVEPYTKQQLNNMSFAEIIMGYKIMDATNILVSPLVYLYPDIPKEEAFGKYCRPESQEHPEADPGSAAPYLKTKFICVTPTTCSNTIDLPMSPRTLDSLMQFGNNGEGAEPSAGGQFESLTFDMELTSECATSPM

Structure (SMILES) | IC50 [1] [nM] | IC50 [2] [nM]
CNC(=O)c1cnc(Nc2ccc(C#N)cn2)cc1Nc1cccc(-c2ncn(C)n2)c1OC | 13 | 
NC(=O)c1ccccc1Nc1cc(Nc2ccc(F)cn2)ncc1C(N)=O | 180 | 89
[2H]C([2H])([2H])NC(=O)c1nnc(NC(=O)C2CC2)cc1Nc1ccccc1S(C)(=O)=O | 15 | 
CNC(=O)c1cnc(Nc2ccc(F)cn2)cc1Nc1ccccc1S(C)(=O)=O | 230 | 
N#Cc1cc(Nc2cc(NC3CC3)c3ncc(C(N)=O)n3n2)cc(C(F)(F)F)c1 | 8200 | 
[2H]C([2H])([2H])NC(=O)c1nnc(NC(=O)C2CC2)cc1Nc1cccc(-c2ncn(C)n2)c1OC [Bms-986165] | 89 | 
